Measurements: US12390467B2, “Necroptosis inducers or autophagy inhibitors or a combination thereof” (The University of Toledo, priority 2018, dated 2025)
Like-named read-outs stand apart in the source and are kept apart here.

Columns and labels:
Type in all cases: cell-based
[1] = test system: MCF-7 (non-TNBC cell line); assay: MTT cell viability assay, MCF-7; conditions: read-out: IC50 ± SD, MCF-7
Description: (§1) The following cancer and non-cancer cell lines were used in the initial cytotoxicity screening of the TPH104 compounds: triple negative breast cancer (TNBC): MDA-MB468, MDA-MB 231, and BT-20; non-TNBC: MCF-7 and ZR-75-1; ovarian: Ov2008; prostate: DU145; colon: HCT-116, S1, and LOVO; lung: H460; normal kidney: HEK-293; normal breast: HMEC; and normal colon: CRL-1459. All cells were cultured in Dulbecco's modified Eagle medium (DMEM), supplemented with 10% fetal bovine serum (FBS), and 1% penicillin/streptomycin (P/S). Cells were allowed to grow as adherent monolayers in T25 flasks in a humidified incubator with 5% CO2 at 37° C. for a period of 24 h, unless otherwise specified for certain experiments.
(§2) The MTT assay was used to determine the cytotoxicity of all of the compounds. Briefly, in a 96-well flat-bottom cell culture plate, the cells were seeded at a density between 3-5×10^3 cells/well (180 μl in each well) and incubated for 24 h (a hemocytometer was used for cell counting). The next day, the cells were incubated with different concentrations of the nine compounds (0, 0.1, 0.3, 1, 3, 10, 30, and 100 μM) for 72 h. After 72 h, 20 μl of 5 mg/ml of 3-(4,5-dimethylthiazol-2-yl)-2,5-diphenyltetrazolium bromide (MTT) was added to the plate and incubated with the cells for 3 h at 37° C. In this experiment, the living cells will reduce the soluble MTT dye to non-soluble purple formazan crystals. Following incubation, the media containing MTT removed via suction and 100 μL of 100% dimethyl sulfoxide (DMSO) was added to dissolve the formazan crystals. Subsequently, the plate was shaken for 2 minutes and the absorbance was measured at a wavelength of 570 nm using a SpectraMax iD3 Multi-Mode Microplate Reader (Molecular Devices, Sunnyvale, CA). The IC50 values of each compound were calculated and used to determine the selectivity ratio (IC50 in normal cells/IC50 in cancer cells) of each compound as previously described. Based on the results obtained from these experiments, the compound TPH104, which had the lowest IC50 value, was selected for further experiments.

[2] = test system: normal human mammary epithelial cells (HMEC); assay: MTT cell viability assay, HMEC
Description: as §1, §2

BT-20 (TNBC cell line) = assay: MTT cell viability assay, BT-20
Description: as §1, §2

TNBC cell lines = assay: Cytotoxicity screening (MTT), TNBC cell lines overall; conditions: TNBC cell lines overall
From the text: To this end, several commercial databases were searched, and 17 similar molecules from the VitasM database were retrieved with considerable structural diversity in terms of the substitution on the aryl ring A attached to the thienopyrimidine scaffold and aryl ring B attached to hydrazino moiety. Further, the biological evaluation of the 17 molecules sheds light on the structural features deemed important for the selective cytotoxicity shown by this class of molecules. With this understanding, the 17 molecules were subjected to a screening protocol comprising of two TNBC, two non-TNBC, and one normal cell lines.
as §1, §2

[3] = test system: other normal cell lines (colon and kidney); assay: MTT cytotoxicity, other normal cell lines
Description: as §1
The MTT assay was used to determine the cytotoxicity of all of the compounds. Briefly, in a 96-well flat-bottom cell culture plate, the cells were seeded at a density between 3-5×10^3 cells/well (180 μl in each well) and incubated for 24 h (a hemocytometer was used for cell counting). […] Subsequently, the plate was shaken for 2 minutes and the absorbance was measured at a wavelength of 570 nm using a SpectraMax iD3 Multi-Mode Microplate Reader (Molecular Devices, Sunnyvale, CA). The IC50 values of each compound were calculated and used to determine the selectivity ratio (IC50 in normal cells/IC50 in cancer cells) of each compound as previously described. […]

MDA-MB231 cells = assay: Scratch/wound healing assay
Description: MDA-MB231 cells were seeded in a 6 well-plate (10-20,000 cells/well) and incubated at 37° C. until they reached 60-80% confluence and formed a complete monolayer, as previously reported. Subsequently, a wound was created by scratching the monolayer with a 10 μl sterile pipette tip. The floating cells were washed away with sterile PBS, making the wound area clear and completely empty. Immediately following monolayer scratching, TPH104 (0.5, 1, 2, 5 or 10 μM) or vehicle were added to the cell culture media (2 ml total in each well) and incubated at 37° C. for 36 h. The wound closure was monitored over time by taking pictures after 0 h, 12 h, 24 h, and 36 h of incubation using an EVOS-FLC microscope. Image J software NIH, Bethesda, MD, USA) was used to determine the areas of the wound at different time points as previously reported.

[4] = test system: S1M180 and H460-MX20 ABCG2-overexpressing cells vs parental S1 and H460; assay: Collateral sensitivity in ABCG2-overexpressing versus parental cells; conditions: 0.3, 3, and 30 μM
From the text: The data is shown as means±SEM of three independent experiments.

[5] = biological target: T1, P-gp (ABCB1), DU145TXR prostate cancer cells (Homo sapiens, UniProt P08183); assay: Calcein AM assay for P-gp modulation; conditions: concentration dependent
T1 construct: endogenous in cells; host or cells: DU145TXR prostate cancer cells
Description: Ability of P-gp to efflux Calcein AM is used to identify the molecules which interfere with P-gp transporter activity. About 10000 cells of DU145TXR prostate cancer cells were seeded in each well in 96 well plates and allowed to grow until confluency for 4-5 days. Then media was replaced with phenol red free RPMI media and cells were treated with indicated concentrations of TPH104s and 1 μg/mL of Calcein AM. Fluorescence measured after 60 minutes with excitation at 485/20 nm and at emission 535/20 nm using the BioTek Cytation 5 imaging multi-mode reader (Bio-Tek, Winooski, VT). DMSO (0.5% v/v) was used as the vehicle, and 15 μM of Pgp inhibitor SMU 45 was used as a positive control. (n=6 in each trial).

[6] = biological target: T2, BCRP (ABCG2), MCF-7 M100 breast cancer cells (Homo sapiens, UniProt Q9UNQ0); assay: Hoechst 33342 assay for BCRP modulation; conditions: concentration dependent
T2 construct: endogenous in cells; host or cells: MCF-7 M100 breast cancer cells
Description: Ability of BCRP to efflux nuclear stain Hoechst 33342 was used to identify the molecules which interfere with BCRP transporter activity. About 14000 cells of MCF-7 M100 breast cancer cells were seeded in each well in 96 well plates and allowed to grow until confluency for 4-5 days. Then media was replaced with phenol red free RPMI media and cells were treated with indicated concentrations of TPH104s and 5 μg/mL of Hoechst 33342. Fluorescence measured after 60 minutes with excitation at 361/20 nm and at emission 497/20 nm using the BioTek Cytation 5 imaging multi-mode reader (Bio-Tek, Winooski, VT). DMSO (0.5% v/v) was used as the vehicle, and 0.5 μM of BCRP inhibitor, Ko143 was used as a positive control and 15 μM of P-gp modulator, verapamil was used as negative control.

T2 sequence (Q9UNQ0 whole entry): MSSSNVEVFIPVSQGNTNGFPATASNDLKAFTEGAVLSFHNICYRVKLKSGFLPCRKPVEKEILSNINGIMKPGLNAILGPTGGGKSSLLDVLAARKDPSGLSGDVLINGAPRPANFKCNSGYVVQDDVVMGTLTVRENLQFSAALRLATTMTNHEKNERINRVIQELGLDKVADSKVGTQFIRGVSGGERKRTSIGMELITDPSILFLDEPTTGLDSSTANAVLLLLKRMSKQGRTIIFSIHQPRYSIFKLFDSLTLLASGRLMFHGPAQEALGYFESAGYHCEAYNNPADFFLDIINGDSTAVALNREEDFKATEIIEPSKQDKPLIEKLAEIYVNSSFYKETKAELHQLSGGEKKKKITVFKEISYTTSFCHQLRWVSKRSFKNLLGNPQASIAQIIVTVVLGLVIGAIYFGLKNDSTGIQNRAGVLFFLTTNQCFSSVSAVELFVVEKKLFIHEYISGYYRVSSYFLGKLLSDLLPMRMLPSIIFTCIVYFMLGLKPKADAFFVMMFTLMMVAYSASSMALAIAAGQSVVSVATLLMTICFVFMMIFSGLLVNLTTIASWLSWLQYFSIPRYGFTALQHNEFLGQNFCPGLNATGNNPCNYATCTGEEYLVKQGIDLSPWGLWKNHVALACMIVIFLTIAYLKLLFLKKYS
T1 sequence (P08183 whole entry): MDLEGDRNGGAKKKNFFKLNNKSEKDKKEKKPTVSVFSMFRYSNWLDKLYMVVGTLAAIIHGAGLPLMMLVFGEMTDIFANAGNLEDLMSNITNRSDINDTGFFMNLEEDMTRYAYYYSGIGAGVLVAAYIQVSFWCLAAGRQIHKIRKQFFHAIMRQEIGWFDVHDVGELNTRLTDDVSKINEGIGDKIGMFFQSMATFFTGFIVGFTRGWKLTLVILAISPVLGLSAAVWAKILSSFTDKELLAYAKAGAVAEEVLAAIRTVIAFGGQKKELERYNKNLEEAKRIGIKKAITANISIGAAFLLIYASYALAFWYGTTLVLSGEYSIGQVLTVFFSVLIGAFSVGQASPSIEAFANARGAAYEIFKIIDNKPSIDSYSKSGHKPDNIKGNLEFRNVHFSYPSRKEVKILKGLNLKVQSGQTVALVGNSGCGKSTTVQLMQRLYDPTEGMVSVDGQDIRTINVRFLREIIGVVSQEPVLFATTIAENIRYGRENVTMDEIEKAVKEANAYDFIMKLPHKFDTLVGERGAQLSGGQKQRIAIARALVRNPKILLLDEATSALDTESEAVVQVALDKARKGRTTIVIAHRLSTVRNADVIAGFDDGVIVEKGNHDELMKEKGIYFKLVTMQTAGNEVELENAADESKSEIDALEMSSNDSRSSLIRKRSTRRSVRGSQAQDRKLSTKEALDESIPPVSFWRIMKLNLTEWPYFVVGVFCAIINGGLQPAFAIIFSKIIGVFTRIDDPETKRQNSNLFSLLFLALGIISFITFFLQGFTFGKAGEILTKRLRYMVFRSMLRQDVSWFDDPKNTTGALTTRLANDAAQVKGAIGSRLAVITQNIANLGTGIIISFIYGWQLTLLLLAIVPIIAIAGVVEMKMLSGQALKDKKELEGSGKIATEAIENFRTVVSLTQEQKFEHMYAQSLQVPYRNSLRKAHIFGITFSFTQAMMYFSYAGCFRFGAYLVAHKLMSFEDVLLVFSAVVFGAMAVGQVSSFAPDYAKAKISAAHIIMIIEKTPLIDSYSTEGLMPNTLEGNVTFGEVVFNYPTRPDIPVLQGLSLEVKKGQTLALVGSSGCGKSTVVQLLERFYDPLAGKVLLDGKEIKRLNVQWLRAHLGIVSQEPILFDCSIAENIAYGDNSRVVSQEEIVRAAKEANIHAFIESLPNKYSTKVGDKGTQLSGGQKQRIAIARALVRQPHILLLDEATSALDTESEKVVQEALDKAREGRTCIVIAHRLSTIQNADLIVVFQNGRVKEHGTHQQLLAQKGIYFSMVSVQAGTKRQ

COc1ccc(O)c(/C=N/Nc2ncnc3scc(-c4ccc(C)cc4)c23)c1 [TPH104]
IC50 ([1]; 72 h): 3.84 ± 1.36 µM
IC50 ([1]; Homo sapiens, MCF7, 72 h): 3.8 µM
selectivity fold on TNBC cells compared to normal human mammary epithelial cells [2]: more than 100 fold
IC50 for HMEC, fold higher than the IC50 values for TNBC cells ([2]; HMEC vs TNBC cells): 330-411 fold
IC50 ([2]; Homo sapiens, HMEC, MTT, 72 h, Normal, read-out: IC50 ± SD, HMEC): 82.3 µM
percent cell survival, TPH104 + rapamycin vs TPH104 only (BT-20 (TNBC cell line); + 100 nM rapamycin): significant increase
percent BT-20 survival, TPH104 + 3-methyladenine (BT-20 (TNBC cell line); + 0.5 mM): no significant change
IC50 (BT-20 (TNBC cell line); Homo sapiens, BT-20, MTT, 72 h, TNBC): 0.29 µM
IC50 (TNBC cell lines): < 1 µM
selectivity fold in comparison to other normal cell lines (colon and kidney) [3]: up to 30 fold
death of cells (MDA-MB231 cells; 10 μM, after 12 h of incubation): 70%
mobility and migration (MDA-MB231 cells; 0.5, 1, 2, 5, and 10 μM): significantly decreased
wound closure (MDA-MB231 cells; 1, 2, 5, and 10 μM): significantly reduced
ABCG2 transporter mediated multidrug resistance, collateral sensitivity [4]: collateral sensitivity
efflux function of ABCB1 [5]: blocking the efflux function
efflux function of ABCG2 [6]: blocking the efflux function
